Experimental data as given in US8183262B2, “Pyridine derivatives as mGluR2 antagonists” (Hoffmann-La Roche Inc., priority 2007, dated 2012).

Compound `Cc1cc(-c2ccc(Cl)cc2)nc(-c2ccnc(-c3ccc(S(N)(=O)=O)s3)c2)n1` [Example 192, 5-{4-[4-(4-Chloro-phenyl)-6-methyl-pyrimidin-2-yl]-pyridin-2-yl}-thiophene-2-sulfonic acid amide] has a melting point of 232.5 °C. Work on `Cc1cc(-c2ccc(Cl)c(Cl)c2)nc(-c2cccc(-c3cccc(S(N)(=O)=O)c3)c2)n1` [Example 193, 3′-[4-(3,4-Dichloro-phenyl)-6-methyl-pyrimidin-2-yl]-biphenyl-3-sulfonic acid amide] yielded a melting point of 206.5 °C. With `Cc1cc(-c2ccc(Cl)c(Cl)c2)nc(-c2ccnc(-c3cccc(S(N)(=O)=O)c3)c2)n1` [Example 194, 3-{4-[4-(3,4-Dichloro-phenyl)-6-methyl-pyrimidin-2-yl]-pyridin-2-yl}-benzenesulfonamide] the melting point was 202.5 °C. `Cc1cc(-c2ccc(Cl)c(Cl)c2)nc(-c2cccc(-c3ccc(S(N)(=O)=O)s3)c2)n1` [Example 195, 5-{3-[4-(3,4-Dichloro-phenyl)-6-methyl-pyrimidin-2-yl]-phenyl}-thiophene-2-sulfonic acid Amide] gave a melting point of 238 °C. For `Cc1cc(-c2ccc(Cl)c(Cl)c2)nc(-c2ccnc(-c3ccc(S(N)(=O)=O)s3)c2)n1` [Example 196, 5-{4-[4-(3,4-Dichloro-phenyl)-6-methyl-pyrimidin-2-yl]-pyridin-2-yl}-thiophene-2-sulfonic acid amide], the melting point was 267 °C. `Cc1cc(-c2ccc(C(F)(F)F)cc2)nc(-c2ccnc(-c3ccc(S(N)(=O)=O)s3)c2)n1` [Example 197, 5-{4-[4-Methyl-6-(4-trifluoromethyl-phenyl)-pyrimidin-2-yl]-pyridin-2-yl}-thiophene-2-sulfonic acid amide] showed a melting point of 263.5 °C. Compound `Cc1cc(-c2ccc(Cl)c(Cl)c2)nc(-n2cnc(-c3cccc(S(N)(=O)=O)c3)c2)n1` [Example 198, 3-{1-[4-(3,4-Dichloro-phenyl)-6-methyl-pyrimidin-2-yl]-1H-imidazol-4-yl}-benzenesulfonamide] has a melting point of 210 °C. Compound `Cc1cc(-c2ccc(Cl)c(Cl)c2)nc(-n2cnc(-c3ccc(S(N)(=O)=O)cc3)c2)n1` [Example 199, 4-{1-[4-(3,4-Dichloro-phenyl)-6-methyl-pyrimidin-2-yl]-1H-imidazol-4-yl}-benzenesulfonamide] has a melting point of 282.5 °C. In the case of `Cc1cc(-c2ccc(Cl)cc2)nc(-n2cnc(-c3ncc(S(N)(=O)=O)s3)c2)n1` [Example 200, 2-{1-[4-(4-Chloro-phenyl)-6-methyl-pyrimidin-2-yl]-1H-imidazol-4-yl}-thiazole-5-sulfonic acid amide], the melting point is reported as 255.5 °C. `NS(=O)(=O)c1cccc(-c2cccc(-c3nc(-c4ccc(Cl)c(Cl)c4)cc(C(F)(F)F)n3)c2)c1` [Example 202, 3′-[4-(3,4-Dichloro-phenyl)-6-trifluoromethyl-pyrimidin-2-yl]-biphenyl-3-sulfonic acid amide] showed a melting point of 241 °C. `NS(=O)(=O)c1cccc(-c2cc(-c3nc(-c4ccc(Cl)c(Cl)c4)cc(C(F)(F)F)n3)ccn2)c1` [Example 203, 3-{4-[4-(3,4-Dichloro-phenyl)-6-trifluoromethyl-pyrimidin-2-yl]-pyridin-2-yl}-benzenesulfonamide] gave a melting point of 247 °C. Work on `NS(=O)(=O)c1ccc(-c2cccc(-c3nc(-c4ccc(Cl)c(Cl)c4)cc(C(F)(F)F)n3)c2)s1` [Example 204, 5-{3-[4-(3,4-Dichloro-phenyl)-6-trifluoromethyl-pyrimidin-2-yl]-phenyl}-thiophene-2-sulfonic acid amide] yielded a melting point of 203 °C. With `NS(=O)(=O)c1ccc(-c2cc(-c3nc(-c4ccc(Cl)c(Cl)c4)cc(C(F)(F)F)n3)ccn2)s1` [Example 205, 5-{4-[4-(3,4-Dichloro-phenyl)-6-trifluoromethyl-pyrimidin-2-yl]-pyridin-2-yl}-thiophene-2-sulfonic acid amide] the melting point was 266 °C. Compound `Cc1cc(-c2cc(C(F)(F)F)nc(-c3cccc(-c4cccc(S(N)(=O)=O)c4)c3)n2)ccc1C(F)(F)F` [Example 206, 3′-[4-(3-Methyl-4-trifluoromethyl-phenyl)-6-trifluoromethyl-pyrimidin-2-yl]-biphenyl-3-sulfonic acid amide] has a melting point of 205 °C. Work on `Cc1cc(-c2cc(C(F)(F)F)nc(-c3cccc(-c4ccc(S(N)(=O)=O)s4)c3)n2)ccc1C(F)(F)F` [Example 207, 5-{3-[4-(3-Methyl-4-trifluoromethyl-phenyl)-6-trifluoromethyl-pyrimidin-2-yl]-phenyl}-thiophene-2-sulfonic acid amide] yielded a melting point of 216 °C. In the case of `NS(=O)(=O)c1ccc(-c2cn(-c3nc(-c4ccc(Cl)c(Cl)c4)cc(C(F)(F)F)n3)cn2)s1` [Example 208, 5-{1-[4-(3,4-Dichloro-phenyl)-6-trifluoromethyl-pyrimidin-2-yl]-1H-imidazol-4-yl}-thiophene-2-sulfonic acid amide], the melting point is reported as 282 °C (dec.). In the case of `Cc1cc(-c2cc(C(F)(F)F)nc(-n3cnc(-c4ccc(S(N)(=O)=O)s4)c3)n2)ccc1C(F)(F)F` [Example 209, 5-{1-[4-(3-Methyl-4-trifluoromethyl-phenyl)-6-trifluoromethyl-pyrimidin-2-yl]-1H-imidazol-4-yl}-thiophene-2-sulfonic acid amide], the melting point is reported as 260 °C. Work on `NS(=O)(=O)c1ccc(-c2cn(-c3nc(-c4ccc(Cl)c(Cl)c4)cc(C(F)(F)F)n3)cn2)cc1` [Example 211, 4-{1-[4-(3,4-Dichloro-phenyl)-6-trifluoromethyl-pyrimidin-2-yl]-1H-imidazol-4-yl}-benzenesulfonamide] yielded a melting point of 334 °C. For `Cc1cc(-c2cc(C(F)(F)F)nc(-n3cnc(-c4ccc(S(N)(=O)=O)cc4)c3)n2)ccc1C(F)(F)F` [Example 212, 4-{1-[4-(3-Methyl-4-trifluoromethyl-phenyl)-6-trifluoromethyl-pyrimidin-2-yl]-1H-imidazol-4-yl}-benzenesulfonamide], the melting point was 287 °C. Compound `Cc1cc(-c2cc(C(F)(F)F)nc(-n3cnc(-c4cccc(S(N)(=O)=O)c4)c3)n2)ccc1C(F)(F)F` [Example 213, 3-{1-[4-(3-Methyl-4-trifluoromethyl-phenyl)-6-trifluoromethyl-pyrimidin-2-yl]-1H-imidazol-4-yl}-benzenesulfonamide] has a melting point of 180 °C. Work on `Cc1cc(-c2ccc(Cl)c(Cl)c2)nc(-n2cnc(-c3cccc(S(C)(=O)=O)c3)c2)n1` [Example 214, 4-(3,4-Dichloro-phenyl)-2-[4-(3-methanesulfonyl-phenyl)-imidazol-1-yl]-6-methyl-pyrimidine] yielded a melting point of 213 °C. With `NS(=O)(=O)c1cccc(-c2cn(-c3nc(-c4ccc(Cl)c(Cl)c4)cc(C(F)(F)F)n3)cn2)c1` [Example 215, 3-{1-[4-(3,4-Dichloro-phenyl)-6-trifluoromethyl-pyrimidin-2-yl]-1H-imidazol-4-yl}-benzenesulfonamide] the melting point was 239 °C. `Cc1cc(-c2ccc(Cl)c(Cl)c2)nc(-n2cnc(-c3ccc(S(N)(=O)=O)s3)c2)n1` [Example 216, 5-{1-[4-(3,4-Dichloro-phenyl)-6-methyl-pyrimidin-2-yl]-1H-imidazol-4-yl}-thiophene-2-sulfonic acid amide] showed a melting point of 253.5 °C. `CS(=O)(=O)c1cccc(-c2cn(-c3nc(-c4ccc(C(F)(F)F)cc4)cc(C(F)(F)F)n3)cn2)c1` [Example 217, 2-[4-(3-Methanesulfonyl-phenyl)-imidazol-1-yl]-4-trifluoromethyl-6-(4-trifluoromethyl-phenyl)-pyrimidine] gave a melting point of 231 °C.
